The source of these data is patent publication US20230242654A1, “REAGENTS FOR EXPANDING CELLS EXPRESSING RECOMBINANT RECEPTORS” (Juno Therapeutics, Inc., priority 2017, published 2023).

In series [1] the test system is Healthy donor-or patient-derived CART cells. Briefly: Cytokine production on BCMA or BCMA/PD-L1 conjugated beads. Format: cell-based, human. The conditions noted are these: 1 μM, in the presence of PD-L1; versus vehicle. As for the experimental part: In another study, cells were cultured in the presence of BCMA beads generated as described in Example 1, with or without additional conjugation of human recombinant PD-L1-Fc. Healthy donor-or patient-derived CART cells were stimulated in the presence of BCMA-conjugated beads or BCMA/PD-L1 conjugated beads for 24 hours in the presence of 1 μM lenalidomide. Cytokine production was measured in the supernatant. […] The results were consistent with a conclusion that anti-BCMA CAR-T cytokine production following incubation with BCMA-conjugated beads was increased by lenalidomide in the presence of PD-L1-mediated inhibition.

Another series relates to Anti-BCMA CAR-T cells. Briefly: Phenotype of anti-BCMA CAR T cells stimulated 7 days on BCMA beads with or without lenalidomide. Format: cell-based, human. As for the experimental part:
(§1) Anti-BCMA CAR-T cells, generated from samples from representative healthy donors or multiple myeloma patient derived material, and cultured with 50 μg/mL BCMA-Fc conjugated beads (generated as described in Example 1) at a ratio of 1:1 bead:CAR+ T cell for 7 days, in the presence of […] lenalidomide or a vehicle control. Expression of CD25, PD-1, Tim3 and Lag3 on CAR T cells (using an antibody for surrogate CAR marker) cultured under the different conditions then was assessed by flow cytometry.

For a further series, the system named is anti-BCMA CAR T cells. Briefly: Cytokines in culture supernatant 24 hours after addition of BCMA-conjugated beads. The class given is cell-based, human. On the procedure: (§2) Cryofrozen anti-BCMA CAR T cells, produced substantially as described in Example 2 and formulated at a 1:1 ratio of CD4+ and CD8+ T cells, were thawed. Unless otherwise indicated, beads (diameter about 4.5 μm) from a 5 μg/ml or 50 μg/ml BCMA-conjugated bead composition, generated as described in Example 1, were added to the wells at a ratio of T cells to beads of 1:2 in the presence or absence of 5 μM lenalidomide. Cells were incubated up to 14 days and analyzed at various time points for cytokine secretion, cell expansion by flow cytometry for the EGFRt surrogate marker, and for cytolytic activity.
Twenty four hours after addition of BCMA-conjugated beads, the presence of TNF-α, IFNγ, and IL-2 in culture supernatants was assessed.
In a further exemplary study, two different anti-BCMA CAR T cell compositions were generated from different donors, each containing T cells expressing the same anti-BCMA CAR. The cells were thawed and incubated with beads (diameter about 4.5 μm) from a 5 μg/mL or 200 μg/mL BCMA-conjugated bead composition generated as described in Example 1. The incubation was carried out at a ratio of T cells to beads of 1:1 in the presence or absence of 1 μM or 5 μM lenalidomide. Twenty four hours after addition of BCMA-conjugated beads, IL-2 production by the anti-BCMA CAR+ T cells was assessed in culture supernatants.

The subject of the next series is anti-BCMA CAR+ T cells. Briefly: Cell count and CTV proliferation after BCMA-conjugated bead stimulation. The following applies: 5 μM lenalidomide. The class given is cell-based, human. As for the experimental part:
as §2
Total cell count, monitored at day 4 (FIG. 9G) and day 7 (FIG. 9H), was increased following stimulation of anti-BCMA CAR+ T cells with beads from a 50 μg/mL BCMA-conjugated bead composition, but not 5 μg/mL BCMA-conjugated bead composition, compared to the cells present at the time of initiation of the incubation (dashed line).
To further assess proliferation, the cells containing anti-BCMA CAR-expressing T cells were labeled with the proliferation marker dye CELLTRACE VIOLET (CTV; ThermoFisher Scientific, Waltham Mass.) in accordance with the manufacturer's protocol prior to incubation with the BCMA-conjugated beads. Proliferation was assessed by dye dilution using flow cytometry on cells that were stimulated with beads from the 50 μg/mL BCMA-conjugated bead composition.

In series [2] the test system is RPMI-8226 target cells. In words: Cytolytic activity and IFN-gamma against target cells after bead incubation. The class given is cell-based. On the procedure: Cytolytic activity of CAR+ T cells after incubation with BCMA-conjugated beads was assessed by incubation with the BCMA-expressing target cell line RPMI-8226, which is a BCMA+ multiple myeloma cell line. After seven days of incubation of anti-BCMA CAR+ T cells with BCMA-conjugated beads (5 μg/ml or 50 μg/ml) in the presence or absence of lenalidomide, the beads were removed from the cultures and the cells were plated with the RPMI-8226 target cells at a ratio of effector cells to target cells of 3:1 or 1:1 in the further presence or absence of 5 μM lenalidomide. To perform the cytolytic assay, the target RPMI-8226 cells were labeled with NucLight Red (NLR) to permit tracking of target cells by microscopy. Cytolytic activity was assessed by measuring the loss of viable target cells over a period of four days, as determined by red fluorescent signal (using the INCUCYTE® Live Cell Analysis System, Essen Bioscience). The number of viable cells was normalized to cells at day 0 prior to incubation with the RPMI-8226 target cells.
In a further exemplary study, anti-BCMA CAR+ T cells were untreated, or were incubated for 24 hours or for seven days with beads (diameter about 4.5 μm) from a 50 μg/mL BCMA-conjugated bead composition generated as described in Example 1 at a ratio of beads to cells of 1:1. The anti-BCMA CAR T+ cells were removed from the cultures and incubated with RPMI-8226 target cells at a 0.3:1 or 1:1 effector cell to target cell ratio. To assess cytokine response to the target cells after incubation with BCMA-conjugated beads, IFN gamma levels were measured in the supernatant.

The subject of series [3] is RPMI-8226 target cells. Briefly: Cytolytic activity and cytokine production of bead-prestimulated CAR-T cells on target cells. Format: cell-based. As for the experimental part: as §1
Specifically, for pretreated cells in which pretreatment had been conducted in the presence of lenalidomide, the cells were cultured with the target cells in the presence of lenalidomide; likewise, for pretreated cells in which pretreatment had been conducted in the presence of vehicle, cells were cultured with the target cells in the presence of vehicle. Following the co-culture, cytolytic activity was assessed by measuring the loss of viable target cells over a period of seven days, as determined by red fluorescent signal. Percentage killing was normalized to anti-BCMA CAR T cells prestimulated on beads in the presence of vehicle. Cytokine production was assessed by ELISA from supernatant following culture with target cells for 24 hours. Experiments were performed twice in 3 donors. […]

Structures are written as SMILES.

For the molecule `Nc1cccc2c1CN(C1CCC(=O)NC1=O)C2=O` (stereo not drawn) [lenalidomide], the secreted cytokine levels result in series [1] is “potentiated secreted cytokine levels”. For the same molecule, in the series with Anti-BCMA CAR-T cells (1 μM, 7 days on 50 μg/mL BCMA beads, 3 healthy donors), the “CAR+ viability” value was “significantly increased CAR+ viability”. Also, in the series on Anti-BCMA CAR-T cells (1 μM, 7 days on BCMA beads), the “surface CD25 expression (MFI)” value was “increasing CD25 expression”, the “surface PD-1 expression (MFI)” value is reported as “reduced PD-1 expression” and the total cell count entry is listed as “did not alter the total cell count”. The “percentage positive for Lag3 expression” value in the series with Anti-BCMA CAR-T cells (CD4+ and CD8+ CAR+ populations) is “increased”. Besides, the “percentage of PD-1+ cells” value in the series with Anti-BCMA CAR-T cells (CD4+ population) is reported as “decrease in the percentage of PD-1+ cells”. Besides, in the series with Anti-BCMA CAR-T cells (CD8+ population), the “surface expression of Tim3” value was “increased the surface expression of Tim3”. Besides, in the series on Anti-BCMA CAR-T cells (vehicle- versus lenalidomide-treated), the “percentage CAR+” value is on record as “no significant differences”. Also, in the series with anti-BCMA CAR T cells (1 μM or 5 μM, 200 or 5 μg/mL beads), the “cytokine (IL-2) production” value is “increased cytokine production in the presence of both the high and low antigen stimulation”. Further, in the series with anti-BCMA CAR T cells (5 μM lenalidomide, 24 hours), the “BCMA-induced CAR+ T cell cytokine production” value is “increased BCMA-induced CAR+ T cell cytokine production”. Also, in the series on anti-BCMA CAR+ T cells (50 ug beads, day 7), the “proliferation (cell count)” value is “small increase in proliferation”. Also, in the series with anti-BCMA CAR+ T cells (50 μg/mL beads, day 4 but not day 7), the “proliferation as assessed by CTV dilution” value is given as “slight delay in proliferation”. Besides, the target cell viability result in the series with RPMI-8226 target cells [2] (RPMI 8226 cells cultured in the presence of lenalidomide, no T cells) is on record as “did not directly influence target cell viability”. Also, the “cytolytic activity of the CAR+ T cells” value with RPMI-8226 target cells [2] (lenalidomide during the seven day bead incubation prior to the killing assay) is given as “increased cytolytic activity of the CAR+ T cells”. For the same molecule, the killing activity result in the series on RPMI-8226 target cells [2] (lenalidomide present during the cell killing assay) was “did not substantially affect killing activity”. In addition, the cytokine production result with RPMI-8226 target cells [3] (1 μM lenalidomide during prestimulation versus vehicle) was “trend toward increased cytokine production”. Further, the cytolytic function result with RPMI-8226 target cells [3] (1 μM lenalidomide during the prestimulation period) is on record as “preserved cytolytic function”.
